Test results published in publication PMC2072912 (Purinergic Signalling, 2007).
Like-named read-outs stand apart in the source and are kept apart here.

How the values were obtained:
rat adenine receptor [1] = target: T1, rat adenine receptor (Rattus norvegicus, UniProt Q7TN49); details: read-out: IC50 previously determined for the rat adenine receptor; cited from earlier work
T1 sequence (Q7TN49 1-304): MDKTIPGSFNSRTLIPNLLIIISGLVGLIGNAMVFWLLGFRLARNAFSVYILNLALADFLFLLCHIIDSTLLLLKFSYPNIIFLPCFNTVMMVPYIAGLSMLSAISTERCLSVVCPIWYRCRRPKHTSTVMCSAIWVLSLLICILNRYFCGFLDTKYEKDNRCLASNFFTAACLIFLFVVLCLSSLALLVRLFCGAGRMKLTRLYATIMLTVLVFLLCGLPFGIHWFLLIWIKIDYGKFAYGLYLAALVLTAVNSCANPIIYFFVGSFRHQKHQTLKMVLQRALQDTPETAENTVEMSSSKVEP

rat adenine receptor [2] = target: T1, rat adenine receptor; details: read-out: IC50 previously determined for the rat adenine receptor; cited from earlier work; remark: listed apart in the source
[3] = target: Achromobacter xylosoxidans (intact bacteria); test: [3H]adenine competition binding, intact bacteria; details: for activity at Achromobacter binding sites: A. xylosoxidans binding studies
[4] = target: A. xylosoxidans membrane preparations; test: [3H]adenine homologous competition, bacterial membrane preparations; type: binding, Achromobacter xylosoxidans; details: estimated from homologous competition, n = 3
[5] = test system: A. denitrificans membrane preparations; test: as above; design: species or system Achromobacter denitrificans; details: read-out: binding affinity (IC50)
[6] = test system: A. lwoffii membrane preparations; test: as above; type: binding, Acinetobacter lwoffii
[7] = target: A. denitrificans (intact bacteria); test: [3H]adenine competition binding, intact bacteria; design: species or system Achromobacter denitrificans; details: read-out: binding affinity (IC50); A. denitrificans intact cells
[8] = target: A. lwoffii (intact bacteria); test: [3H]adenine competition binding, intact bacteria; design: species or system Acinetobacter lwoffii; details: read-out: binding affinity (IC50); A. lwoffii intact cells
mouse adenine receptor = details: cited from earlier work
[9] = test system: microbial contaminations in Tris-HCl buffer; test: Radioligand binding to stored; details: no added protein
Saccharomyces cerevisiae = test: [3H]adenine binding to yeast control organism; details: data not shown

Which IC50 (rat adenine receptor [1]) does the source give for C[C@H]1O[C@@H](n2cnc3c(N)ncnc32)[C@H](O)[C@@H]1O [5′-deoxyadenosine] here?
The IC50 was 0.823 µM.

For CCn1cnc2ncnc(N)c21 [7-ethyladenine], which IC50 (rat adenine receptor [2]) is on record?
Its IC50 is 47.3 µM.

With Nc1ncnc2nc[nH]c12 [Adenine] as the compound, how does the Kd ([3]; estimated from homologous competition, intact bacteria, n = 8) read?
The Kd was 0.011 ± 0.0012 µM.

And the IC50 ([3]; read-out: IC50 value for the A. xylosoxidans binding site, intact bacteria, versus 10 nM [3H]adenine)?
Its IC50 is 0.013 µM.

What about the Kd [4] of the same compound?
Its Kd is 0.00584 ± 0.00112 µM.

And the IC50 [5]?
The IC50 was 2.4 µM.

What about the IC50 ([6]; contaminant 3 membrane preparation, versus 10 nM [3H]adenine, n = 1) of the same compound?
The IC50 was 2.35 µM.

What about the IC50 ([6]; read-out: binding affinity (IC50), A. lwoffii membrane preparations) of the same compound?
The IC50 was 1 µM.

What about the IC50 [7] of the same compound?
The IC50 was 0.253 µM.

What about the IC50 [8] of the same compound?
The IC50 was 0.299 µM.

What about the IC50 (rat adenine receptor [2]) of the same compound?
The IC50 was 0.0299 µM.

What about the “affinity for the mouse adenine receptor” value (mouse adenine receptor) of the same compound?
The value was 54.9 nM.

With Nc1ncnc2c1ncn2[C@@H]1O[C@H](CO)[C@@H](O)[C@H]1O [Adenosine] as the compound, how does the “activity at Achromobacter binding sites” value [3] read?
Its value is “completely inactive”.

For Nc1ncnc2nc(Br)[nH]c12 [8-bromoadenine], which IC50 (rat adenine receptor [2]) is on record?
The IC50 was 17.3 µM.

Which “specific [3H]adenine binding” value ([9]; buffer stored 2 weeks at 4°C) does the source give for [3H]c1nc2ncnc(N)c2[nH]1 [[^3H]adenine, [8-^3H]Adenine] here?
The value was 562 ± 19 cpm.

What about the “specific [3H]adenine binding” value ([9]; buffer stored 6 weeks at 4°C) of the same compound?
Its value is “approximately 7,000 cpm”.

And the “[3H]adenine binding” value (Saccharomyces cerevisiae)?
Its value is “no [^3H]adenine binding”.

Which “activity at Achromobacter binding sites” value [3] does the source give for Nc1nc(O)nc2nc[nH]c12 [2-Hydroxyadenine] here?
Its value is “completely inactive”.

For Nc1nc(N)c2[nH]cnc2n1 [2,6-Diaminopurine], which “activity at Achromobacter binding sites” value [3] is on record?
Its value is “completely inactive”.
